Measurements: patent US8158621B2, “Methods of treating or preventing autoimmune diseases with 2,4-pyrimidinediamine compounds” (Rigel Pharmaceuticals, Inc., priority 2002, dated 2012)
Several values for one entry are separate records, joined by “and”; a condition that tells them apart may be missing. Identical values can stand only once. Marks after values point to notes of the source that are not given here.

Legend:
[1] = 14-day repeat-dose intranasal toxicity study in Cynomolgus monkeys; format: in vivo; conditions: 14-day intranasal
Method: A 14-day repeat-dose intranasal toxicity study in Cynomolgus monkeys was performed at doses of 2.1, 4.5 or 6.3 mg/kg/day. In life parameters included: clinical observations, body weights, food consumption, ophthalmology, blood pressure, electrocardiography, hematology, clinical chemistry, urinalysis, immunotoxicological assessment, gross necropsy, organ weights, toxicokinetic assessments and histopathology (including the nasal cavity).

CHMC cells [2] = assay: ionomycin-induced Ca2+ flux in CHMC cells; format: cell-based, human; conditions: 10 μM
CHMC cells [3] = assay: anti-IgE-induced Ca2+ flux in CHMC cells; format: cell-based, human; conditions: 10 μM
Syk kinase [4] = assay: Phosphorylation of proteins downstream of Syk kinase in IgE receptor-activated BMMC cells; format: cell-based, mouse; conditions: activated mast cells (BMMC)
Method: For the assay, BMMC cells were incubated in the presence of varying concentrations of test compound (0.08 μM, 0.4 μM, 2 μM and 10 μM) for 1 hr at 37° C. The cells were then stimulated with anti-IgE antibody as previously described. After 10 min, the cells were lysed and the cellular proteins separated by electrophoresis (SDS PAGE).
(§1) Following electrophoresis, the phosphorylation of the proteins indicated in FIGS. 7, 10 and 11A-D were assessed by immunoblot. Antibodies were purchased from Cell Signaling Technology, Beverley, Mass.

[5] = test system: basophil cells (human peripheral blood); assay: Basophil dustmite activation: histamine release assay; format: cell-based; conditions: basophils, dust mite activation
Method: The basophil activation assay was carried out using whole human peripheral blood from donors allergic to dust mites with the majority of the red blood cells removed by dextran sedimentation. Human peripheral blood was mixed 1:1 with 3% dextran T500 and RBCs were allowed to settle for 20-25min. The upper fraction was diluted with 3 volumes of D-PBS and cells were spun down for 10 min at 1500 rpm, RT. Supernatant was aspirated and cells were washed in an equal volume MT-buffer. Finally, cells were resuspended in MT-buffer containing 0.5% DMSO in the original blood volume. 80 uL cells were mixed with 20 uL compound in the presence of 0.5% DMSO, in triplicate, in a V-bottom 96-well tissue culture plate. A dose range of 8 compound concentrations was tested resulting in a 10-point dose response curve including maximum (stimulated) and minimum (unstimulated) response. […] The cells were stimulated for 30 minutes at 37° C., 5% CO2. The plate was spun for 10 min at 1500 rpm at room temperature and 80 uL the supernatant was harvested for histamine content analysis using the histamine ELISA kit supplied by Immunotech. The ELISA was performed according to supplier's instructions.

Syk kinase [6] = assay: Phosphorylation of proteins in the FcεRI cascade in activated CHMC cells; format: cell-based, human; conditions: activated CHMC cells, varying concentrations (FIG. 10)
Method: as §1

[7] = test system: Salmonella-Escherichia coli tester strains; conditions: for Ames test, tester strain TA1537: with and without metabolic activation
[8] = Pilot dose finding studies (oral); format: in vivo
[9] = Oral bioavailability / pharmacokinetics in rats; conditions: rat, in vivo
Method: Over 50 2,4-pyrimidinediamine compounds of the invention were tested for oral bioavailability. For the study, compounds were dissolved in various vehicles (e.g. PEG 400 solution and CMC suspension) for intravenous and oral dosing in the rats. Following administration of the drug, plasma samples were obtained and extracted. The plasma concentrations of the compounds were determined by high performance liquid chromatography/tandem mass spectrometry (LC/MS/MS) methods. Pharmacokinetic analyses were performed based on the plasma concentration data. The pharmacokinetic parameters of interest include Clearance (CL), Volume of distribution at steady-state (Vss), terminal half-life (t1/2), and oral bioavailability (% F).

[10] = Non-GLP pilot oral toxicity studies in the mouse
Method: Several non-GLP pilot toxicity studies have been conducted in rodents. […] In a 14-day oral toxicity study in the mouse was conducted with doses of 100, 300 and 1000 mg/kg.

[11] = Mouse experimental autoimmune encephalomyelitis (EAE); format: in vivo; conditions: for mice relapsed: from day of immunization
Method: In the SJL murine model of EAE, each mouse is sensitized with PLP/CFA. […] In a treatment protocol, at onset of disease, animals are separated to achieve groups with a similar mean clinical score at onset and administered vehicle or various dose frequencies of test articles via oral gavage. In both protocols, clinical scores are monitored daily, and body weights are measured twice weekly.

[12] = Rat collagen-induced arthritis (CIA); format: in vivo, LOU rats; conditions: for Blinded radiographic scores (scale 0-6): Day 28
Method: In both protocols, clinical scores were obtained daily, and body weights are measured twice weekly. At Day 28, radiographic scores were obtained, and scrum levels of collagen II antibody were measured by ELISA.

[13] = test system: differentiated human macrophages; assay: Macrophage activation, IgG stimulation: TNF; format: cell-based; conditions: stimulus (IgG or LPS) not given; read-out: Monocytes/Macrophage TNF IC50
Method: Purity was assessed by measuring the percentage of CD14+ cells by flow cytometry.
A negative control consisting of the F(ab′)2 fragment was also coated to assess background stimulation. Unbound antibody was washed away 2× with 200 ul PBS. […] The cells were incubated for 16 hr in a 37° C. incubator, and supernatants were collected for Luminex analysis for IL-6 and TNFα, essentially as described for the primary T-cells, above.

[14] = 100 mg/kg 1x/day starting on day of immunization
[15] = 100 mg/kg 2x/day starting on day of immunization
[16] = 200 mg/kg 2x/day starting on day of onset

Oc1cccc(Nc2ncc(F)c(Nc3cccc(O)c3)n2)c1 [Compound R921218]
NOAEL (no observed adverse effect level) [1]: 6.3 mg/kg/day
ionomycin-induced Ca2+ flux (CHMC cells [2]): no effect
anti-IgE-induced Ca2+ flux (CHMC cells [3]): inhibited
phosphorylation of Syk kinase substrates and proteins downstream of Syk kinase (Syk kinase [4]): inhibit phosporylation of various proteins downstream of Syk kinase
IC50 [5]: 302 nM
phosphorylation of proteins downstream of Syk kinase, but not LYN kinase, in the FcεRI signal transduction cascade (Syk kinase [6]): inhibit phosphorylation of proteins downstream of Syk kinase, but not LYN kinase

CNC(=O)COc1cccc(Nc2ncc(F)c(Nc3ccc4c(c3)NCCO4)n2)c1 [Compound R921219]
Ames test, other tester strains [7]: not found to adversely affect any of the other 4 tester strains
Ames test, tester strain TA1537 [7]: positive
doses not tolerated ([8]; multiple (7-day) doses): ≥ 200 mg/kg/day
NOEL (no observed effect level) ([8]; single oral dose): 600 mg/kg
phosphorylation of Syk kinase substrates and proteins downstream of Syk kinase (Syk kinase [4]): inhibit phosporylation of various proteins downstream of Syk kinase
phosphorylation of proteins downstream of Syk kinase, but not LYN kinase, in the FcεRI signal transduction cascade (Syk kinase [6]): inhibit phosphorylation of proteins downstream of Syk kinase, but not LYN kinase

Nc1cccc(Nc2ncc(F)c(Nc3cccc(N)c3)n2)c1 [Compound R921302]
Ames test, other tester strains [7]: not found to adversely affect any of the other 3 tester strains
Ames test, tester strain TA98 ([7]; with S9): positive
Ames test, tester strain TA1537 [7]: positive
metabolic stability in pharmacokinetics study [9]: most metabolically stable compound
NOAEL (no observed adverse effect level) ([10]; 14-day oral toxicity study): 100 mg/kg
tolerability, 100 mg/kg q.d. or b.i.d. ([10]; in vivo, po, 100 mg/kg): well tolerated
findings at 300 mg/kg ([10]; in vivo, po, 300 mg/kg): histopathological changes in the vulva
tolerability, 300 mg/kg q.d. or b.i.d. ([10]; in vivo, po, 300 mg/kg): not tolerated
tolerability, 1000 mg/kg ([10]; in vivo, po, 1000 mg/kg): not tolerated
tolerability, oral 1000 mg/kg ([10]; in vivo, po, 1000 mg/kg): tolerated
Incidence [11, 14]: 10/10
Mortality [11, 14]: 0/10
Onset [11, 14]: 12.3 ± 0.7
Peak (mean clinical score) [11, 14]: 4.3+1.3 and 4.3 ± 1.3
Incidence [11, 15]: 10/10
Mortality [11, 15]: 3/10^a
Onset [11, 15]: 13.0 ± 1.2^b
Peak (mean clinical score) [11, 15]: 4.3+1.4 and 4.3 ± 1.4
mice relapsed ([11]; 100 mg/kg twice daily group): None
mice relapsed ([11]; 100 mg/kg/day group): 3/8
Incidence [11, 16]: 12/12
Mean score at treatment [11, 16]: 3.4 ± 1.6
Mortality [11, 16]: 1/12
Peak [11, 16]: 4.3 ± 0.7
Relapses [11, 16]: 2/12
arthritis score ([12]; 300 mg/kg at disease onset, Day 16 to Day 28): significantly lower arthritis score
mean clinical scores compared with vehicle controls ([12]; 300 mg/kg/day from day of immunization, Days 10-28): significantly reduced
erosions and soft tissue swelling ([12]; 300 mg/kg/day, prophylactically or after disease onset): precluded the development of erosions and reduced soft tissue swelling
Blinded radiographic scores (scale 0-6) ([12]; once daily 150 mg/kg/day, prevention regimen): 2.4±0.006
Blinded radiographic scores (scale 0-6) ([12]; once daily 300 mg/kg/day at onset of disease): 0.45±0.031
Blinded radiographic scores (scale 0-6) ([12]; once daily 300 mg/kg/day, prevention regimen): 0.13 ±0.000001
serum anti-collagen II antibody ([12]; data not shown): marked reduction

OCCCn1ncc2cc(Nc3ncc(F)c(Nc4ccc(Cl)c(Cl)c4)n3)ccc21 [Compound R935391]
IC50 [13]: 1160 nM

CC1(C)Oc2ccc(Nc3nc(Nc4ccc5cn[nH]c5c4)ncc3F)cc2NC1=O [Compound R940363]
IC50 [13]: 133 nM
